A short description of test [1]: Luminescence Cell-Based Dose Retest to Confirm Activators of 5'UTR Stem-Loop Driven Alpha-Synuclein mRNA Translation in H4 Neuroglioblastoma Cells. [Related pubchem assays (depositor defined):AID1813, AID1829]. It counts as functional.
The nature of test [2]: Luminescence Cell-Based Dose Response to Identify Activators of Luciferase Translation or Activity in H4-C Neuroglioblastoma Cells. [Related pubchem assays: 1829 (Project Summary), 1814 (Primary HTS)]. It is filed as functional.
Test [3] is described as follows: Luminescence Cell-Based Dose Confirmation to Identify Activators of 5'UTR Stem-Loop Driven Alpha-Synuclein mRNA Translation in H4 Neuroglioblastoma Cells. [Related pubchem assays: 1829 (Project Summary), 1814 (Primary HTS)]. It counts as functional.
Test [4] in a line: Luminescence Cell-Based Dose Response HTS to Identify Activators of Luciferase Translation or Activity in H4-C Neuroglioblastoma Cells. [Related pubchem assays: 1829 (Project Summary), 1814 (Primary HTS)]. It is filed as functional.
Test [5] is described as follows: Luminescence Cell-Based Dose Response HTS to Identify Activators of Luciferase Translation or Activity in H4 […] Cells. [Related pubchem assays: 1829 (Project Summary), 1814 (Primary HTS)]. It counts as functional.
For test [6], the system named is H4. The test is described as follows: Luminescence Cell-Based Dose Response HTS to Identify Activators of 5'UTR Stem-Loop Driven Prion Protein mRNA Translation in H4 Neuroglioblastoma Cells. [Related pubchem assays: 1829 (Project Summary), 1814 (Primary HTS)]. The note with it: Homo sapiens. It counts as functional.
The nature of test [7]: Luminescence Cell-Based Dose Response to Identify Activators of 5'UTR Stem-Loop Driven Prion Protein mRNA Translation in H4-C Neuroglioblastoma Cells. [Related pubchem assays: 1829 (Project Summary), 1814 (Primary HTS)]. It counts as functional.
Test [8] can be described thus: Luminescence Cell-Based Dose Response HTS to Identify Activators of 5'UTR Stem-Loop Driven Prion Protein mRNA Translation in H4-C Neuroglioblastoma Cells. [Related pubchem assays: 1829 (Project Summary), 1814 (Primary HTS)]. It counts as functional.
Test [9] can be described thus: Luminescence Cell-Based Dose Confirmation HTS to Identify Activators of 5'UTR Stem-Loop Driven Alpha-Synuclein mRNA Translation in H4 Neuroglioblastoma Cells. [Related pubchem assays: 1829 (Project Summary), 1814 (Primary HTS)]. It is filed as functional.
For test [10], the target named is Tyrosine-protein phosphatase non-receptor type 12 (Homo sapiens, UniProt Q05209). The test is described as follows: SAR Selectivity Analysis of small molecule inhibitors of PEST using pCAP in a fluorescence assay. [Related pubchem assays (depositor defined):AID1779, AID1784, AID2135]. It counts as functional.
In test [11] the target is T1, Tyrosine-protein phosphatase non-receptor type 22 (Homo sapiens, UniProt Q9Y2R2).
T1 sequence (Q9Y2R2 whole entry): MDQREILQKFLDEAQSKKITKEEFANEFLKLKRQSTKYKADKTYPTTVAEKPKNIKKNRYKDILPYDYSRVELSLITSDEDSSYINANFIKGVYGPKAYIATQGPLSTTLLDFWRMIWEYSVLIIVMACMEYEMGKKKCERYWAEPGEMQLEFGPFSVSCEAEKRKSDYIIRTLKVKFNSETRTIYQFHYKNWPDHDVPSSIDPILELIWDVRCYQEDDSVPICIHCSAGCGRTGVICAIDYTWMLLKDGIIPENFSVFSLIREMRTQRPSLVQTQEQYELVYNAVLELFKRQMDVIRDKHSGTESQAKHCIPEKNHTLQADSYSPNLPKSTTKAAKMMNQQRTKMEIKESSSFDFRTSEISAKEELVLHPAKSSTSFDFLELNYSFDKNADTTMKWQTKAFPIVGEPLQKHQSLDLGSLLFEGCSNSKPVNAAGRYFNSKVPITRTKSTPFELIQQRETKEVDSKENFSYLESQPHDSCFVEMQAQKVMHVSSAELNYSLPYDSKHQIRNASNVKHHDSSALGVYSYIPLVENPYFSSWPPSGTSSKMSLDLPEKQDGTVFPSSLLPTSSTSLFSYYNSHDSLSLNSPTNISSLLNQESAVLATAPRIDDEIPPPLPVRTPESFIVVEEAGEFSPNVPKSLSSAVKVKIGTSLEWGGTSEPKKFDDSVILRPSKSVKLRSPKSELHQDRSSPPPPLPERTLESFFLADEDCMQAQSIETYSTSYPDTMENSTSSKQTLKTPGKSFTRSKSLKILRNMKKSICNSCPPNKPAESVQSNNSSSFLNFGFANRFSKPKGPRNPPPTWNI
Kind of test: SAR LYP1 Fluorescent Assay using OMFP substrate for In Vitro dose response studies - Set 2. [Related pubchem assays (depositor defined):AID1779, AID1784, AID2140, AID449726, AID488869]. It counts as functional.

In test [12] the target is T2, Tyrosine-protein phosphatase non-receptor type 7 (Homo sapiens, UniProt P35236).
T2 sequence (P35236 whole entry): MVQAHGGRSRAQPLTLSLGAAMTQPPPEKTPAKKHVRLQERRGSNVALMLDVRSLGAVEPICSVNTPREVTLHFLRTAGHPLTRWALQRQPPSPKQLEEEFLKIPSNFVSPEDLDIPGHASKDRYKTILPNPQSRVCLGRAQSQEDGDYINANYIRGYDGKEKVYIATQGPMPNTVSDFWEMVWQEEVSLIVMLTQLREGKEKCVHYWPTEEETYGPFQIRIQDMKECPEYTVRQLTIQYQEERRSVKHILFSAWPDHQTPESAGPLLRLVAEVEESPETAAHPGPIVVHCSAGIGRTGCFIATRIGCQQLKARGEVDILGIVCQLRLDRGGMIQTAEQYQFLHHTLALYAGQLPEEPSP
Kind of test: inhibition of hematopoietic tyrosine phosphatase HePTP – biochemical, set 2, SAR follow-up (AID 449736). It counts as functional.

The target of test [13] is T1, Tyrosine-protein phosphatase non-receptor type 22. Kind of test: inhibition of lymphoid tyrosine phosphatase LYP – biochemical, pCAP fluorogenic substrate, fluorescence, set 3, SAR follow-up (AID 449727). It is filed as functional.
The target is the same in test [14]. The test is described as follows: SAR LYP1 Fluorescent Assay using pCAP substrate for In Vitro dose response studies - Set 2. [Related pubchem assays (depositor defined):AID1779, AID1784, AID2135, AID449727]. It counts as functional.
Test [15] deals with T3, Carboxy-terminal domain RNA polymerase II polypeptide A small phosphatase 1 (Homo sapiens, UniProt Q9GZU7).
T3 sequence (Q9GZU7 whole entry): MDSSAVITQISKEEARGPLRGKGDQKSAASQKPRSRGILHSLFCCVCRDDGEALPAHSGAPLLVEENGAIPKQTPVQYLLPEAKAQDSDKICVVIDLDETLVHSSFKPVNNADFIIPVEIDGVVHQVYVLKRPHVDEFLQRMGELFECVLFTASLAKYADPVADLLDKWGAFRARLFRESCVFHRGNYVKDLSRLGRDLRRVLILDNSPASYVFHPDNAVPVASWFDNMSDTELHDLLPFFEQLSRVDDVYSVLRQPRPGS
Kind of test: CTDSP1 inhibitors, concentration-response, biochemical, absorbance readout, ultra-high-throughput screen actives (AID 540297). It counts as functional.

For test [16], the target named is T1, Tyrosine-protein phosphatase non-receptor type 22. Kind of test: SAR LYP1 Fluorescent Assay using OMFP substrate for In Vitro dose response studies - Set 3. [Related pubchem assays (depositor defined):AID1779, AID1784, AID2140, AID2686]. It counts as functional.
The target in test [17] is Polyadenylate-binding protein 1 (Homo sapiens, UniProt P11940). Kind of test: PABP inhibition in translation initiation, SAR follow-up (AID 435018). It is filed as functional.
Test [18] deals with Eukaryotic translation initiation factor 4H (Homo sapiens, UniProt Q15056). Kind of test: inhibitors of translation initiation factor eIF4H – SAR follow-up (AID 435011). It counts as functional.
Test [19] in a line: protection from phage-mediated lysis, alamar blue read-out – E. coli UTI89, K1F phage, bacterial capsule biogenesis inhibitors (AID 488966). It is filed as functional. For orientation: The colour change of resazurin is a common sign of viable cells or microbes.
In test [20] the target is Alkaline phosphatase, placental type (Homo sapiens, UniProt P05187). The test is described as follows: human placental alkaline phosphatase inhibition – biochemical, luminescence, confirmation (AID 1512). It is filed as functional.
Test [21] deals with T4, Mannose-6-phosphate isomerase (Homo sapiens, UniProt P34949).
T4 sequence (P34949 whole entry): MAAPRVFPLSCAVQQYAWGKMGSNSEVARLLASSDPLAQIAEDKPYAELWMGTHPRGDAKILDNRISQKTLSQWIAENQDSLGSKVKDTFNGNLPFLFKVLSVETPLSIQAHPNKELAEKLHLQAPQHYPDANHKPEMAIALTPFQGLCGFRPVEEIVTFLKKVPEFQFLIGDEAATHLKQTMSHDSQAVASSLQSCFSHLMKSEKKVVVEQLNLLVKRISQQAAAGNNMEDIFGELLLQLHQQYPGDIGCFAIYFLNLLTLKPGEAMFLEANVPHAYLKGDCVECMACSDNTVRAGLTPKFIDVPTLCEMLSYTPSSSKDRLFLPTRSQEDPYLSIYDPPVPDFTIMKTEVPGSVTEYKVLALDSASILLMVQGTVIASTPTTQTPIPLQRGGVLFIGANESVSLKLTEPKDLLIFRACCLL
The test is described as follows: phosphomannose isomerase inhibition – biochemical, fluorescence intensity, confirmation (AID 1535).

The target in test [22] is T4, Mannose-6-phosphate isomerase. Kind of test: Confirmation of compounds inhibiting phosphomannose isomerase (PMI) via a fluorescence intensity assay using a high concentration of mannose 6-phosphate. [Related pubchem assays (depositor defined):AID1209, AID1220, AID1545, AID1553, AID1620].
Test [23] has as its target T5, Bcl-2-related protein A1 (Mus musculus, UniProt Q07440).
T5 sequence (Q07440 whole entry): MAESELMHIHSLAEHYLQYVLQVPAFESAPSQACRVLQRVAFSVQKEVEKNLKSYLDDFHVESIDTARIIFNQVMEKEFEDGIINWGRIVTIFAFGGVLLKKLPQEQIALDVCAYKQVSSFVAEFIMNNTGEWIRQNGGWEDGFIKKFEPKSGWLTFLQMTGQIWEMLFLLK
The test is described as follows: displacement of Bid BH3 peptide from Bfl-1 – biochemical, fluorescence polarization, FITC-Bid, mouse, primary screen (AID 432).

For test [24], the target named is NACHT, LRR and PYD domains-containing protein 3 (Homo sapiens, UniProt Q96P20). The test is described as follows: NALP3 inhibitors in yeast, dose response, luminescent (AID 488799). It is filed as functional.
Test [25] addresses T5, Bcl-2-related protein A1. The test is described as follows: small-molecule antagonists of Bfl-1/BH3 interaction – biochemical, TR-FRET, mouse Bfl-1, confirmation (AID 621).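 Also: TR-FRET binding of GST-Bfl-1 to FITC-labelled Bid peptide via terbium antibody.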 On the technique in general: Time-resolved FRET reads energy transfer from a long-lived donor to a nearby acceptor.
Test [26] in a line: A cytotoxicity screen of small molecule inhibitors of the PhoP region in Salmonella typhi identified in the primary screen. [Related pubchem assays: 1850, 1864, 1985 ]. It counts as functional.
Test [27] has as its system J774.A1. The test is described as follows: Confirmation of image-based Screening Assay for Inhibitors of Phagocytosis. [Related pubchem assays (depositor defined):AID1029, AID1643]. It is filed as functional, cell-based. The conditions noted are these: Mus musculus.

Active and inactive are the calls of the source. Bounds are passed on as bounds.

Chain of Tyrosine-protein phosphatase non-receptor type 12 (Q05209 whole entry): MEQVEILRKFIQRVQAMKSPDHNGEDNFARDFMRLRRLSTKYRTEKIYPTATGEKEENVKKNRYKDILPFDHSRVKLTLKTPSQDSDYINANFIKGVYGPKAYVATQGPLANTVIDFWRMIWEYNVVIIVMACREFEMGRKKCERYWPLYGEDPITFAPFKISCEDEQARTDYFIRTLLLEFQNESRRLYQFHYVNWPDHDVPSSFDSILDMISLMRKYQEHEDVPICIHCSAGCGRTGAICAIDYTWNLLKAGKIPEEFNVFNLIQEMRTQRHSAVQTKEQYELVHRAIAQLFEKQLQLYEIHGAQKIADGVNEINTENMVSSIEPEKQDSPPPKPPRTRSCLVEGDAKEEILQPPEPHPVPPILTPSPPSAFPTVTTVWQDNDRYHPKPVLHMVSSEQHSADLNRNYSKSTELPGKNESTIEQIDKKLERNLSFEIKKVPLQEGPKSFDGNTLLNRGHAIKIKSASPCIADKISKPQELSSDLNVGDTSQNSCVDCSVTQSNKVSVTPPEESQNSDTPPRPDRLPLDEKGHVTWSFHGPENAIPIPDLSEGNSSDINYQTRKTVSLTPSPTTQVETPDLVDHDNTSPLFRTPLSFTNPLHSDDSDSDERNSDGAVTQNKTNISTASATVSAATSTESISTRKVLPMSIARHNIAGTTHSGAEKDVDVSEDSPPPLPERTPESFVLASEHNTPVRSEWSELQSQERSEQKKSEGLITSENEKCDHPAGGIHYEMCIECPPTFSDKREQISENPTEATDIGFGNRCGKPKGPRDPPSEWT
Chain of NACHT, LRR and PYD domains-containing protein 3 (Q96P20 whole entry, the tested form may be a part): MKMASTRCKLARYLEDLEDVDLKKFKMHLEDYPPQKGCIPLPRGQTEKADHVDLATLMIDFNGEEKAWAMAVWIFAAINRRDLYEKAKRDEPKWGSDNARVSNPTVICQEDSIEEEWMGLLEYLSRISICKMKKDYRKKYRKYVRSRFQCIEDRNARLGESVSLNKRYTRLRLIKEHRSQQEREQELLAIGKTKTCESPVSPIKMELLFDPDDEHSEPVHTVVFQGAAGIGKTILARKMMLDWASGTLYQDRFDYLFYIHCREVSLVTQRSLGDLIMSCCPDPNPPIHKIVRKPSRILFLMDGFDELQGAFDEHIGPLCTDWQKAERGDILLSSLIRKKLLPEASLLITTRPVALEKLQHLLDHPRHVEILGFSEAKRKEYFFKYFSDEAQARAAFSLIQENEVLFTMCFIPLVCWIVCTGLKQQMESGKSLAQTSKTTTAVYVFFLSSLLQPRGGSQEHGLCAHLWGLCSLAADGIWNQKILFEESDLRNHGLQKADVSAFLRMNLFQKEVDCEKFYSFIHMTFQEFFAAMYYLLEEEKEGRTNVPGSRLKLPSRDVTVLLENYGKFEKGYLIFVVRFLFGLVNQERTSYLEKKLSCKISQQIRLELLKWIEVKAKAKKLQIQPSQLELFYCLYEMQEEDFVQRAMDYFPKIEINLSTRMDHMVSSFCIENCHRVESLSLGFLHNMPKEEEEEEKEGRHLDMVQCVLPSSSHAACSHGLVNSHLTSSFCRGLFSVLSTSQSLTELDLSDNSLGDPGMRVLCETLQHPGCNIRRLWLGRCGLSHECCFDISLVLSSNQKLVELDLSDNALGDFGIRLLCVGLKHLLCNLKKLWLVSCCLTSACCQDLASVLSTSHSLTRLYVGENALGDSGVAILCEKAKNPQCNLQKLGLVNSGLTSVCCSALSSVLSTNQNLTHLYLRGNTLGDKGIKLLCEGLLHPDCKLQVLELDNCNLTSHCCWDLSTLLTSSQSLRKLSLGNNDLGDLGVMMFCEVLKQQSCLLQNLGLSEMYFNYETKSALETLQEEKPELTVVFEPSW
Chain of Polyadenylate-binding protein 1 (P11940 whole entry): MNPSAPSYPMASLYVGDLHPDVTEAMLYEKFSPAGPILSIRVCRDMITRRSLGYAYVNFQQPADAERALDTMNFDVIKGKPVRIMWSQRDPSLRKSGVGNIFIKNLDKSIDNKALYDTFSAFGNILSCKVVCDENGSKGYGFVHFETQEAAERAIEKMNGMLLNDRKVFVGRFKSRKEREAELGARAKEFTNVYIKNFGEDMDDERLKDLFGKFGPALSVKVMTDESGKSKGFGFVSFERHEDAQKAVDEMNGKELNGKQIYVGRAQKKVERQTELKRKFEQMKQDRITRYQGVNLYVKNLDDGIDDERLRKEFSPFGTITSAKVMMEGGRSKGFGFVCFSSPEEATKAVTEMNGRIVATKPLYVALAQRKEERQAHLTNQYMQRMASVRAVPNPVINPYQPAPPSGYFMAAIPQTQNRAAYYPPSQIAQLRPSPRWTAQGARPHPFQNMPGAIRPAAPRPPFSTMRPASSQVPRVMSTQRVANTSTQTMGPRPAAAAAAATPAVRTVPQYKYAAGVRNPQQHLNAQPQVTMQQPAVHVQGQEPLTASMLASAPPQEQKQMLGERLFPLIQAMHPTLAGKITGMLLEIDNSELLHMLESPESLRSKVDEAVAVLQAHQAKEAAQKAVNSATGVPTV
Chain of Alkaline phosphatase, placental type (P05187 whole entry): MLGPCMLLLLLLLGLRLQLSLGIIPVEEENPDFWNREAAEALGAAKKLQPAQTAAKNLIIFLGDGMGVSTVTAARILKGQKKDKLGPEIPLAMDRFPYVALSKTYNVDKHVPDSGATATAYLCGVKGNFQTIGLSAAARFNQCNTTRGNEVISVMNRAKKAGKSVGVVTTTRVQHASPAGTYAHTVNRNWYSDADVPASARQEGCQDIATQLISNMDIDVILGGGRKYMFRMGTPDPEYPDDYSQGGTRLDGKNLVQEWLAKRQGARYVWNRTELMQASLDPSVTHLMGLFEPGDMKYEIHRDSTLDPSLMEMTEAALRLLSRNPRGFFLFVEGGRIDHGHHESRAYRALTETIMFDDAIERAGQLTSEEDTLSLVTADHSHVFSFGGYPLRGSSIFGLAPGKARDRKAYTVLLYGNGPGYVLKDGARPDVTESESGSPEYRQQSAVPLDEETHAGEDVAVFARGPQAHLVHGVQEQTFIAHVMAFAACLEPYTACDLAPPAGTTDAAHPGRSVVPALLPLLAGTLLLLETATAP

On to `C=CCc1ccc(OCCn2nnc3ccccc32)c(OC)c1`, for which the EC50 – broadly, the concentration that produces a half-maximal response – in test [1] is > 195 µM (inactive); in test [2] it was 3.71 µM (active); in test [3], > 12 µM (not active); in test [4] it was 0.772 µM (active); in test [5] it was 4.24 µM (active); in [6], 8.33 µM (active). For the same compound, the EC50 in test [7] was 1.49 µM (active); in test [8], > 195 µM (not active); in test [9], < 0.1 µM (active).

As to `N#C/C(=C\c1ccc(OCc2ccc(Br)cc2)cc1)C(=O)Nc1cccc(C(=O)O)c1`, the 50% inhibitory concentration (IC50) – broadly, the midpoint of a concentration-inhibition curve – was 0.714 µM (active) in test [10]; 1.94 µM (active) in test [11]; 0.343 µM (active) in [12]; 3.37 µM (active) in test [13]; 3.5 µM (active) in [14]; 1.83 µM (active) in test [15]. Besides, in test [16], the 50% inhibitory concentration (IC50) was 0.925 µM (active).

With `COc1cc(NC(=O)CSc2ccc(-c3ccco3)nn2)cc(OC)c1`, the IC50 in test [17] was > 100 µM (inactive); in test [18], 62.7 µM (active).

Take `Cc1cc(NCCN)nc2ccccc12`: the IC50 in test [19] was > 300 µM (active).

As to `O=C1N(Cc2ccccc2)c2ccccc2C12NNc1ccccc1O2` (configuration not stated), the IC50 in [20], in test [21] and in test [22] was > 100 µM (inactive) each time.

As to `O=C(Nc1cccc(Br)c1)c1cc2ccccc2o1`, the IC50 was > 100 µM (not active) in test [23], 9.81 µM (active) in test [24] and > 100 µM (not active) in [25]. In addition, the EC50 in [26] was > 50 µM (active).

As for `COc1ccccc1-c1nnc2sc(-c3cc4ccccc4o3)nn12`, in [27], the IC50 was > 25 µM (inactive).

For the origin of these results see ChEMBL document CHEMBL1201862, “PubChem BioAssay data set” (2004).
